Assay results: patent US11457625B1, “Tuning a broad acting antimicrobial textile to act as a narrow spectrum antimicrobial textile” (priority 2018, dated 2022)
No end group written: not given here.

Experiments:
Staphylococcus aureus = test: Testing swatches for binding and antimicrobial activity (strain not distinguished); type: cell-based; details: for colonies counted (cells recovered from swatch), S. aureus: Cj peptide attached to swatches
Procedure: (§1) Peptides were synthesized at New England peptides with the linker sequence of GGSGGS or GGSGG on the N terminal (Table 1). Textile swatches of cotton or cotton-nylon blends were cut to 1 cm circles and the surface hydroxyls were converted to carboxyl by submerging the swatches 1 hour with agitation at 300 rpm in 25 mL of citric acid buffer (7% citric acid, 5% Sodium Hypophosphate monohydrate). (Synthetic material such as nylon and polyester require a pretreatment with sodium hydroxide before the citric acid buffer is added) To cure the reaction, the swatches were heated in a microwave for 2 minutes. After curing, swatches were washed the in 25 mL of deionized water for 5 min. The swatches were activated by submerging in 30 mL of EDC solution (0.6372 g in 30 mL 200 mM monobasic sodium phosphate buffer pH) and incubating for 45 minutes with 300 rpm agitation. After incubation, swatches were rinsed in 25 mL 20 mM sodium phosphate buffer pH 7.2 for 5 minutes. During the wash, 5 ml peptide samples were prepare from a 2 mg/ml stock of peptide in 20 mM sodium phosphate solution at concentrations of […] 1.25 mg/g peptide. […] Each solution was added to one well of a six well microtiter plate. […] Swatches were washed in 20 mM phosphate buffer for 5 min, then wash for 5 min in water twice and allowed to air dry.
(§2) Inoculation took place using an 8 ml overnight cultures for each target microorganisms in appropriate media. For Staphylococcus aureus, Staphylococcus epidermidis and Pseudomonas aeruginosa cultures were grown on Nutrient broth. For Corynebacterium jeikieson the media was Brain Heart Infusion supplemented with 0.1% Tween 80 and for Micrococcus luteus the media was Brain Heart Infusion media. The OD for each culture was taken and diluted to an OD of 1 using appropriate growth media. For each culture a 1 mL aliquot was taken and transfer to a clean 2 mL eppendorf tube. The tubes were placed into a micro centrifuge and spun at 10,000 G until a pellet has formed. The media was aspirated without disturbing the pellet and the pellet was re-suspend in 1 mL of 0.125× Nutrient Broth with 0.15% Triton X-100. This was repeated to wash pellets. The pellet was re-suspend in 1 ml of 0.125× Nutrient Broth with 0.15% Triton X-100 and the above centrifugation was performed again. After last wash, the pellet was re-suspended in 1 ml of 0.125× Nutrient Broth with 0.15% Triton X-100 then added to 8 mL of 0.125× Nutrient Broth with 0.15% Triton X-100. […] The inoculum was enumerated by adding 500 ul into 4.5 ml of PBS and serial diluting 7 more times. Counts were taken by spread plating only 10^−6, 10^−7 and 10^−8.
(§3) Swatches prepared previously were inoculated with 25 ul of the inoculum (scoured samples will be used as a negative control). The inoculated swatches were incubated for 24 hr at 37° C. in a sealed tube. To analyze binding, the swatches were placed into 2.5 ml modified DE broth and vortex for 5 min. The modified DE broth was serial diluted 10^−3 by adding 500 ul to 4.5 ml phosphate buffer. The dilution was spread plated onto the appropriate growth media (mannitol salts for Staphylococcus aureus, nutrient agar for Staphylococcus epidermidis, Cetrimide agar for Pseudomonas aeruginosa, Brain heart infusion for Micrococcus luteus and Brain Heart infusion with 0.1% Tween 80 for Corynebacterium jeikeium) and incubate overnight.
These concentration were chosen based upon result from previously described experiments. The treated fabric was evaluated against two different strains of Staphylococcus aureus (Table 5). […] A follow up experiment provide additional evidence for this possibility.
(§4) An experiment was run using the same two Staphylococcus aureus strains 27217 and 25923 with the addition of Staphylococcus epidermidis. […]

S. epidermidis 12228 = test: Testing swatches for binding and antimicrobial activity; type: cell-based, Staphylococcus epidermidis; details: for colonies counted (cells recovered from swatch), S. epidermidis: Cj peptide attached to swatches
Procedure: as §1, §2, §3, §4
(§5) The six potential peptides were attached to swatches and exposed to Corynebacterium jeikeium, Micrococcus luteus, Staphylococcus epidermidis, Staphylococcus aureus and Pseudomonas aeruginosa.

Pseudomonas aeruginosa = test: as above; type: cell-based; details: for colonies counted (cells recovered from swatch), P. aeruginosa: Cj peptide attached to swatches
Procedure: as §1, §2, §3
Pseudomonas aeruginosa was examined using concentrations based upon the textile MIC.
as §5

Corynebacterium jeikeium = test: as above; type: cell-based; details: peptide attached to swatches
Procedure: as §1, §2, §3, §5

Micrococcus luteus = test: as above; type: cell-based; details: peptide attached to swatches
Procedure: as §1, §2, §3, §5

S aureus 27217 = test: as above; type: cell-based, Staphylococcus aureus; details: PHMB 0%, 24 hr 37° C.
Procedure: as §1
as §2, with “Counts were taken by spread plating only 10^−6, 10^−7 and 10^−8.” left out
(§6) These concentration were chosen based upon result from previously described experiments. The treated fabric was evaluated against two different strains of Staphylococcus aureus (Table 5). […]

S. aureus 25923 = test: as above; type: cell-based, Staphylococcus aureus; details: PHMB 0%, 24 hr 37° C.
Procedure: as §1
as §2, with “Counts were taken by spread plating only 10^−6, 10^−7 and 10^−8.” left out
as §6

| Sequence | colonies counted (cells recovered from swatch), S. aureus (Staphylococcus aureus) | colonies counted (cells recovered from swatch), S. epidermidis (S. epidermidis 12228) | colonies counted (cells recovered from swatch), P. aeruginosa (Pseudomonas aeruginosa) | colonies counted (cells recovered from swatch), C. Jeikeium (Corynebacterium jeikeium) | colonies counted (cells recovered from swatch), M luteus (Micrococcus luteus) | further results |
| --- | --- | --- | --- | --- | --- | --- |
| GGSGGGWWNSWGKCV (MICROCOCCUS LUTEUS and CORYNEBACTERIUM JEIKIEUM) [Cj 5] | 4195000 | 337000 | TNTC | 0 | 0 |  |
| GGSGGIGGVSGGLTG (MICROCOCCUS LUTEUS and CORYNEBACTERIUM JEIKIEUM) [Cj 6] | 5980000 | 122000 | 175000 | 0 | 0 |  |
| GGSGGNGVVLTL (MICROCOCCUS LUTEUS and CORYNEBACTERIUM JEIKIEUM) [Cj 1] | 6055000 | 65500 | 40000 | 175 | 0 |  |
| GGSGGNRWWQGVVP (MICROCOCCUS LUTEUS and CORYNEBACTERIUM JEIKIEUM) [Cj3] | 7040000 | 121500 | 27000 | 300 | 0 |  |
| GGSGGSKKHRKHRKHRKH (also: bound to textile) [pep] |  |  |  |  |  | CFU (Pseudomonas aeruginosa; 2.5 mg/ml pep, 0% PHMB): 0 CFU |
| GGSGGSWQHVFT (MICROCOCCUS LUTEUS and CORYNEBACTERIUM JEIKIEUM) [Cj 4] | 5315000 | 145000 | 28000 | 245 | 0 |  |
| GGSGGSYSTCDFIM (STAPHYLOCOCCUS AUREUS) [Peptide] |  |  |  |  |  | colonies counted (cells recovered from swatch) (S aureus 27217; peptide 1.75 mg/g): 475000; colonies counted (cells recovered from swatch) (S aureus 27217; peptide 2.5 mg/ml): 0; colonies counted (cells recovered from swatch) (S. aureus 25923; peptide 1.75 mg/g): 4765000; colonies counted (cells recovered from swatch) (S. aureus 25923; peptide 2.5 mg/ml): 0; lowest peptide concentration that will bind the cells (Staphylococcus aureus; both strains): 2.5 mg/mL; binding of cells (in words) (Staphylococcus aureus; both strains, peptide 2.5 mg/ml regardless of the PHMB concentration): completely bound all of the cells; binding of cells (in words) (Staphylococcus aureus; lower peptide concentrations (below 2.5 mg/ml)): may have bound some of the cells, but not all of them; cells recovered (in words) (Staphylococcus aureus; strains 27217 and 25923, peptide present (2.5 mg/ml), PHMB 0 or 0.0008%): no Staphylococcus aureus cell were recovered; binding by the peptide (in words) (S. epidermidis 12228; S. aureus-binding peptide 2.5 mg/ml): does not appear to be any binding; colonies counted (cells recovered from swatch) (S. epidermidis 12228; S. aureus-binding peptide 2.5 mg/ml, PHMB 0%): 693000 |
| GGSGGTWTKKLK (MICROCOCCUS LUTEUS and CORYNEBACTERIUM JEIKIEUM) [Cj2] | 7680000 | 294000 | TNTC | 0 | 0 |  |
